Assay results: publication PMC3735429, “Plasmodium falciparum encodes a conserved active inhibitor-2 for Protein Phosphatase type 1: perspectives for novel anti-plasmodial therapy” (BMC Biology, 2013)
Read-outs that look alike come from different tables or passages of the source. No end group written: not given here.

What was measured:
HB3 P. falciparum strain = test: Growth inhibition assay of P. falciparum HB3 (SYBR Green I, flow cytometry); format: cell-based, Plasmodium falciparum
Procedure: (§1) Assays were carried out in 96-well plates with a starting parasitemia of 0.5% at a haematocrit of 1% using SYBR Green I [81]. The peptides were added to the culture at different concentrations ranging from 80 μM to 1.25 μM (final concentrations) in a volume of 250 μl of RPMI-AlbuMAX (0.5%) and incubated for further 72 hr to allow all stages to complete at least one cycle. Cultures were stained for 30 minutes in the dark with SYBR Green I 1X (Invitrogen) diluted in 20 mM Tris pH8.8, 138 mM NaCl, and fixed with 1% paraformaldehyde. Fixed pRBC were stored at 4°C in the dark until flow cytometry analysis.
Parasite growth was assessed by flow cytometry on a FACSCalibur (Becton-Dickinson). Infected and uninfected erythrocytes were gated on the basis of their forward scatter (FSC) and side scatter (SSC) signals. Fluorescence analysis (Green fluorescence, FL-1 filter) was performed with CellQuest software (FACScan; BD Biosciences) on a total of 100,000 acquired events. Fluorescence was observed as described by Izumiyama et al.[82] on a two-parameters dot plot (FL1-SSC). Fluorescence of non-infected RBC was adjusted to plot between 10^0 and 10^1. Results are expressed in percentage of fluorescence among total RBC. […]

3D7 P. falciparum strain = test: Growth inhibition assay of P. falciparum 3D7 (SYBR Green I, flow cytometry); format: cell-based, Plasmodium falciparum
Procedure: as §1
Parasite growth was assessed by flow cytometry on a FACSCalibur (Becton-Dickinson). Infected and uninfected erythrocytes were gated on the basis of their forward scatter (FSC) and side scatter (SSC) signals. Fluorescence analysis (Green fluorescence, FL-1 filter) was performed with CellQuest software (FACScan; BD Biosciences) on a total of 100,000 acquired events. Fluorescence was observed as described by Izumiyama et al.[82] on a two-parameters dot plot (FL1-SSC). Fluorescence of non-infected RBC was adjusted to plot between 10^0 and 10^1. Results are expressed in percentage of fluorescence among total RBC.
The drug concentration resulting in 50% inhibition of parasite growth (IC50) was assessed by determining the drug concentration corresponding to 50% of the parasitaemia observed in the peptide-free control wells. The IC50 value was calculated using the ICEstimator software based on a non-linear regression analysis of log-based dose–response curves. Results are presented as means ± sem.

Plasmodium falciparum = details: ref [1]-[3]; cited from earlier work
Text: During its life cycle, Plasmodium falciparum, the deadliest malaria parasite for humans, undergoes several successive rounds of mitosis to amplify parasite populations and consequently to increase the rate of its transmission. Among the essential actors in the growth and division of the parasite are kinases and phosphatases. […] Subsequently, the identification of kinases and phosphatases and their central functions in P. falciparum[4-9] ...

[1] = target: His6-PfPP1 (Plasmodium falciparum)
PfPP1 [2] = test: PfPP1 phosphatase activity assay with pNPP substrate; format: biochemical, Plasmodium falciparum; details: recombinant PfPP1 pre-incubated 30 min at 37°C with different concentrations of protein before pNPP; maximal effect; means of four independent experiments in duplicate
Procedure: The activity of PfPP1 with p-nitro-phenylphosphate (pNPP) was assayed as previously described. To investigate the role of PfI2 recombinant proteins or PfI2/PfI3 derived peptides on His6-PfPP1 activity, different amounts of proteins were added to 1 μg of PfPP1 recombinant protein and preincubated for 30 min at 37°C before testing the PfPP1 phosphatase activity. Okadaic acid was used as control (data not show). Results are presented as mean of increase or decrease of phosphatase activity in comparison to His6-PfPP1 incubated in the reaction buffer.

Xenopus oocytes = test: Induction of germinal vesicle breakdown (GVBD, G2/M transition) in microinjected Xenopus oocytes; format: cell-based; details: 100 ng injected; monitored 15 h; sets of 20 oocytes, repeated at least three times
Procedure: Preparation of Xenopus oocytes and microinjection experiments were performed as previously described. Briefly, in each assay, 20 oocytes removed from at least two or three different animals were microinjected with His6-PfI2 (wild type, deleted or mutated) recombinant proteins or PfI2/PfI3 derived peptides. […] Okadaic acid was used as a positive control for ability of oocytes to respond to PP inhibition (data not shown). Regarding the pre-injection experiments, deleted, mutated His6-PfI2 proteins or PfI2/PfI3 derived peptides were pre-injected (100 ng) in the oocytes 1 hour before the His6-PfI2WT injection (100 ng). GVBD was detected by the appearance of a white spot at the apex of the animal pole after 15 hours. Oocyte extracts were prepared as follow: oocytes were lysed in buffer (50 mM HEPES pH 7.4, 500 mM NaCl, 0.05% SDS, 0.5% Triton X100, 5 mM MgCl2, 1 mg/ml bovine serum albumin, 10 μg/ ml leupeptin, 10 μg/ml aprotinin, 10 μg/ml soybean trypsin inhibitor, 10 μg/ml benzamidine, 1 mM PMSF, 1 mM sodium vanadate) and centrifuged at 4°C for 15 min at 10,000 g. To detect His6-PfI2 proteins in injected extracts, electrophoresis followed by western-blot analysis performed on oocytes extracts. The membranes were developed with anti-His mAb antibody (Qiagen).

PfPP1 [3] = test: Yeast two-hybrid PfI2-PfPP1 interaction; format: binding, Plasmodium falciparum; details: SD medium lacking leucine, tryptophan, histidine and adenine; 4 days
Text: The full length PfPP1 was cloned into the pGBKT7 vector containing the DNA binding domain of gal4 (Gal4-BD) and wild-type, deleted or mutated PfI2 (PfI2WT, PfI2(1–94), PfI2(19–144), PfI2W16A, PfI2Y103A) into pGADT7 containing the gal4 activation domain (Gal4-AD). The pGBKT7-Gal4-BD-PfPP1 construct was used to transform Y187 strain and maintained on SD media without tryptophan (SD-W). The pGADT7-Gal4-AD-PfI2 constructs were used to transform AH 109 strain and maintained on SD media lacking leucine (SD-L). Mating these two haploid strains results in the formation of diploid strain, which is viable on SD media lacking leucine and tryptophan (SD-LW). Interaction of PfPP1 with the different versions of PfI2 proteins were evaluated by their capacity to grow on selective media: SD medium lacking leucine, tryptophan and histidine (SD-LWH) and SD medium lacking leucine, tryptophan, histidine and adenine (SD-LWHA) for 4 days. Yeasts transformed with empty vector or with pGBKT7 laminine were used as controls.

Molecule VKKKKIKREIKIKKTISWKKTISW [P1] has an IC50 (HB3 P. falciparum strain; HB3 strain, 72 h) of 15 µM and an IC50 (3D7 P. falciparum strain; 3D7 strain, 72 h) of 23.8 µM.

For VKKKKIKREIKIKVVRWKVVRW [P5], the IC50 (HB3 P. falciparum strain; 72 hr, 2 different batches, means ± sem, read-out: HB3 IC50) was 8.79 µM, the IC50 (3D7 P. falciparum strain; 72 hr, 7 independent experiments, 3 batches of peptide, means ± sem, read-out: 3D7 IC50) was 9.72 µM and the parasite growth inhibition (3D7 P. falciparum strain; at 80 μM, 72 hr, blood stage 3D7, means of seven independent experiments in duplicate) was “up to 90%”.

In the case of C=C1[C@@H](O)[C@@H]2O[C@]3(CC[C@H](/C=C/[C@@H](C)[C@@H]4CC(C)=C[C@@]5(O[C@H](C[C@@](C)(O)C(=O)O)CC[C@H]5O)O4)O3)CC[C@H]2O[C@@H]1[C@@H](O)C[C@H](C)[C@H]1O[C@@]2(CCCCO2)CC[C@H]1C [okadaic acid], the “inhibition of parasite growth in vitro” value (Plasmodium falciparum) is given as “drastically inhibited parasite growth in vitro”.

B1: His6-PfI2WT (natural protein)
chain: MKKKVDKSVTKKTISWDEVTINEQDKERGSRMKILEPNTPFNFILMDSASEDEASKYGDVKGSDEGQNNIADDLINKLNQLVEKQENKGVSNIDFKEKRKKHYNEYKMLQKLRKSGTLDDIDEEYKPDNKDSNCDNSNMNESEE
With B1 the phosphatase activity of recombinant PfPP1 on pNPP after pre-incubation for 30 min at 37°C with different concentrations of PfI2WT; inhibition [1] was 80%.

B2: PfI2WT: wild-type recombinant His-tagged P. falciparum inhibitor-2, 144 amino acids (protein)
chain: MKKKVDKSVTKKTISWDEVTINEQDKERGSRMKILEPNTPFNFILMDSASEDEASKYGDVKGSDEGQNNIADDLINKLNQLVEKQENKGVSNIDFKEKRKKHYNEYKMLQKLRKSGTLDDIDEEYKPDNKDSNCDNSNMNESEE
modifications: left off: His6, end not stated, kept
For B2, the “decrease in PfPP1 phosphatase activity” value (PfPP1 [2]) was “up to 80%”, the GVBD induced (Xenopus oocytes) was ~ 85% and the “growth of diploid yeast with PfPP1 on SD-LWHA (stringent conditions)” value (PfPP1 [3]) was “still able to grow”.
